Experimental data taken from ChEMBL document CHEMBL1151599, “Probing the importance of the second chloroethyl arm of a benzoic acid mustard derivative of an imidazole-containing analogue of distamycin” (Bioorg Med Chem Lett, 1994).

What was measured:
K562 = test: Cytotoxicity against the growth of chronic human myeloid leukemia K562 cells in culture following 1 hour exposure of compound using MTT assay; type: functional, cell-based; settings: K562, 1 h
Nucleic Acid [1] = test: Apparent DNA binding constant to Poly (dA-dT) was determined using an ethidium displacement assay; type: nucleic-acid assay
Nucleic Acid [2] = test: Apparent DNA binding constant to Poly (dG-dC) was determined using an ethidium displacement assay; type: nucleic-acid assay
Nucleic Acid [3] = test: Apparent DNA binding constant to T4 DNA was determined using an ethidium displacement assay; type: nucleic-acid assay
Nucleic Acid [4] = test: Apparent DNA binding constant to calf thymus DNA was determined using an ethidium displacement assay; type: nucleic-acid assay; settings: Bos taurus

Row | SMILES | IC50 (K562) | K app (Nucleic Acid [1]) | K app (Nucleic Acid [2]) | K app (Nucleic Acid [3]) | K app (Nucleic Acid [4])
1 | CN(C)CCNC(=O)c1nc(NC(=O)c2nc(NC(=O)c3nc(NC(=O)c4ccc(NCCCl)cc4)cn3C)cn2C)cn1C | > 100 µM | 550000 M⁻¹ | 900000 M⁻¹ | 3.89e+06 M⁻¹ | 2.27e+06 M⁻¹
2 | CN(C)CCNC(=O)c1nc(NC(=O)c2nc(NC(=O)c3nc(NC(=O)c4ccc(N(CCCl)CCCl)cc4)cn3C)cn2C)cn1C |  | 550000 M⁻¹ | 500000 M⁻¹ | 170000 M⁻¹ | 590000 M⁻¹
